# Like-named read-outs stand apart in the source and are kept apart here.
# How the values were obtained:
# Test in all cases: stopped-flow CO2 hydrase assay
# Assay type in all cases: biochemical
# hCA II [1] = biological target: T1, hCA II (Homo sapiens, UniProt P00918)
# T1 construct: gene CA2
# Source text: stopped-flow CO2 hydrase assay on hCA II
# hCA IX [2] = biological target: T2, hCA IX (Homo sapiens, UniProt Q16790)
# T2 construct: gene CA9; trans-membrane isoform
# Source text: stopped-flow CO2 hydrase assay on hCA IX
# hCA I = biological target: T3, hCA I (Homo sapiens, UniProt P00915)
# T3 construct: gene CA1; cytosolic isoform
# T3 sequence (P00915 2-261): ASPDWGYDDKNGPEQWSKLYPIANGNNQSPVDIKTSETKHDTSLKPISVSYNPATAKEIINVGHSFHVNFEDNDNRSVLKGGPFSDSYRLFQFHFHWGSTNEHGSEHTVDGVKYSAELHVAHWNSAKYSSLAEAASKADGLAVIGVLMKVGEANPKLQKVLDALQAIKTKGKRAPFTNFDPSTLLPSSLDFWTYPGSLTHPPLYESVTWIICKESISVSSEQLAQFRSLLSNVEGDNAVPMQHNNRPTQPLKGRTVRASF
# Source text: stopped-flow CO2 hydrase assay on hCA I
# hCA XII [3] = biological target: T4, hCA XII (Homo sapiens, UniProt O43570)
# T4 construct: gene CA12; trans-membrane isoform
# T4 sequence (O43570 30-289 limits assumed): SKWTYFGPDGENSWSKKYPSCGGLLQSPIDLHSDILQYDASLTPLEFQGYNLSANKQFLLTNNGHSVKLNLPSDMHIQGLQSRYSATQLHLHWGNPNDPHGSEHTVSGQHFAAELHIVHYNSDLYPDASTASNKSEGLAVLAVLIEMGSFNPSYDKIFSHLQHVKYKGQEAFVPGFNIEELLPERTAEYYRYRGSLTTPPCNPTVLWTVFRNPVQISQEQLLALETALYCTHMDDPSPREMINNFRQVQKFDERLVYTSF
# Source text: stopped-flow CO2 hydrase assay on hCA XII
# hCA II [4] = biological target: T1, hCA II; details: read-out: KI (μM)^a / hCA I
# hCA XII [5] = biological target: T4, hCA XII; details: read-out: KI (μM)^a / hCA I
# hCA IX [6] = biological target: T2, hCA IX; details: read-out: KI (μM)^a / hCA I
SMILES,Ki (hCA II [1]),Ki (hCA IX [2]),Ki (hCA I),Ki (hCA XII [3]),Ki (hCA II [4]),Ki (hCA XII [5]),Ki (hCA IX [6])
O=C(O)c1cccc(NC=CC(=O)c2ccc([N+](=O)[O-])cc2)c1 [5j],80.7 µM,24.7 µM,> 100 µM,8.9 µM,–,–,–
O=C(/C=C\Nc1ccccc1C(=O)O)c1ccc([N+](=O)[O-])cc1 [5d],26.9 µM,14.1 µM,> 100 µM,7.8 µM,–,–,–
O=C(/C=C\Nc1ccccc1C(=O)O)c1ccc(F)cc1 [5b],24.3 µM,13.2 µM,> 100 µM,4.3 µM,–,–,–
O=C(O)c1cccc(NC=CC(=O)c2ccc(Br)cc2)c1 [5i],81.4 µM,32.5 µM,> 100 µM,13.9 µM,–,–,–
O=C(O)c1ccc(NC=CC(=O)c2ccc(F)cc2)cc1 [5m],8.7 µM,0.92 µM,68.8 µM,1.1 µM,–,–,–
O=C(O)c1ccc(NC=CC(=O)c2ccccc2)cc1 [5l],9.8 µM,1.2 µM,75.3 µM,0.97 µM,–,–,–
O=C(O)c1cccc(NC=CC(=O)c2ccc(F)cc2)c1 [5g],68.2 µM,9.6 µM,> 100 µM,10.3 µM,–,–,–
O=C(O)c1cccc(NC=CC(=O)c2ccccc2)c1 [5f],72.8 µM,15.9 µM,> 100 µM,9.5 µM,–,–,–
O=C(O)c1cccc(NC=CC(=O)c2ccc(Cl)cc2)c1 [5h],77.1 µM,19.2 µM,> 100 µM,8.6 µM,–,–,–
O=C(O)c1cccc(NC=CC(=O)c2ccc3ccccc3c2)c1 [5k],92.3 µM,11.4 µM,> 100 µM,9.7 µM,–,–,–
O=C(/C=C\Nc1ccccc1C(=O)O)c1ccc2ccccc2c1 [5e],49 µM,19.3 µM,> 100 µM,15.7 µM,–,–,–
O=C(/C=C\Nc1ccccc1C(=O)O)c1ccccc1 [5a],39.4 µM,10.6 µM,> 100 µM,6.4 µM,–,–,–
O=C(/C=C\Nc1ccccc1C(=O)O)c1ccc(Cl)cc1 [5c],32.7 µM,17.7 µM,> 100 µM,12.5 µM,–,–,–

# Second part, the molecule after the results:
Ki (hCA II [1]),Ki (hCA IX [2]),Ki (hCA I),Ki (hCA XII [3]),Ki (hCA II [4]),Ki (hCA XII [5]),Ki (hCA IX [6]),SMILES
16.7 µM,8.3 µM,63.8 µM,9.1 µM,–,–,–,"O=C(O)c1ccc(NCCC(=O)c2ccccc2)cc1 [7b, 3/4-((3-oxo-3-phenylpropyl)amino)benzoic acids 7a–b]"
7.4 µM,0.76 µM,79.4 µM,1.5 µM,–,–,–,O=C(O)c1ccc(NC=CC(=O)c2ccc3ccccc3c2)cc1 [5q]
–,–,> 100 µM,–,> 100 µM,> 100 µM,> 100 µM,O=C(O)CNC(=O)c1ccc(NC=CC(=O)c2ccccc2)cc1 [12a]
–,–,> 100 µM,–,> 100 µM,> 100 µM,> 100 µM,O=C(O)CNC(=O)c1ccc(N/C=C/C(=O)c2ccc3ccccc3c2)cc1 [12c]
12.6 µM,4.1 µM,95.6 µM,0.85 µM,–,–,–,O=C(O)c1ccc(NC=CC(=O)c2ccc([N+](=O)[O-])cc2)cc1 [5p]
15.3 µM,5.6 µM,> 100 µM,6.2 µM,–,–,–,O=C(O)c1ccc(NC=CC(=O)c2ccc(Br)cc2)cc1 [5o]
64.3 µM,23.7 µM,> 100 µM,7.4 µM,–,–,–,"O=C(O)c1cccc(NCCC(=O)c2ccccc2)c1 [7a, 3/4-((3-oxo-3-phenylpropyl)amino)benzoic acids 7a–b]"
13.5 µM,3.4 µM,81.5 µM,4.6 µM,–,–,–,O=C(O)c1ccc(NC=CC(=O)c2ccc(Cl)cc2)cc1 [5n]
–,–,> 100 µM,–,> 100 µM,> 100 µM,> 100 µM,O=C(O)CNC(=O)c1ccc(N/C=C/C(=O)c2ccc(Br)cc2)cc1 [12b]

# Source: paper PMC9466612, “Enaminone-based carboxylic acids as novel non-classical carbonic anhydrases inhibitors: design, synthesis and in vitro biological assessment” (Journal of Enzyme Inhibition and Medicinal Chemistry, 2022)
